The structures appear in SMILES notation.

What all share (assay type): in vivo
Data set [1] in a line: Organ distribution of ASK1 inhibitor in rats after intravenous administration. The note with it: male, Sprague-Dawley, rat, single IV 10 mg/kg. As to the method:
The objective of this study was to investigate organ (liver, heart, kidney, pancreas, spleen and skin) distribution of ASK1 inhibitor in male Sprague Dawley rats following a single intravenous (IV) administration at a dose of 10 mg/kg. Three rats are administered intravenously with a solution formulation of ASK1 inhibitor 2-(6-(4-cyclopropyl-4H-1,2,4-triazol-3-yl)pyridin-2-yl)-5-(morpholine-4-carbonyl)isoindolin-1-one in 5% NMP, 15% Solutol HS-15, 20% PEG-400 and 60% HpBetaCD at 10 mg/kg dose. 2-(6-(4-Cyclopropyl-4H-1,2,4-triazol-3-yl)pyridin-2-yl)-5-(morpholine-4-carbonyl)isoindolin-1-one was prepared as described in US2018/0291002 which is herein incorporated by reference in its entirety.
(§1) Blood samples (approximately 120 μL) were collected under light isoflurane anesthesia from retro orbital plexus from a set of three rats at 1 h post IV injection. Immediately after blood collection, plasma was harvested by centrifugation at 4000 rpm, 10 min at […] and samples were stored at −70±10° C. until bioanalysis. Animals were sacrificed immediately followed by abdominal vena-cava cut open and whole body was perfused from heart using 10 mL of normal saline. After isolation, tissue samples were rinsed three times in ice cold normal saline (for 5-10 seconds/rinsed using ˜5-10 mL normal saline in disposable petri dish for each rinse, dried on blotting paper and weighed. Tissue (liver, heart, kidney, pancreas, spleen and skin) samples were homogenized using ice-cold phosphate buffer saline (pH−7.4). Total homogenate volume was five times the tissue weight. All homogenates were stored below −70±10° C. until bioanalysis.
(§2) Plasma, liver, heart, kidney, pancreas, spleen, and skin samples were quantified by fit-for-purpose LC-MS/MS method.

Another data set deals with C57Bl/6 male mice. Description: Efficacy of intravenous ASK1 inhibitor in liver injury due to acute alcoholic hepatitis (pyrazole/LPS model), plasma ALT. The note with it: IV 0.3 and 3 mg/kg twice (3 hours apart), plasma 24 h after LPS. The procedure:
The goal of the study is to evaluate whether IV administered ASK1 inhibitor can reduce liver injury due to acute alcoholic hepatitis (AH).
Seven-day acclimated C57Bl/6 male mice were treated with pyrazole for 2-days to induce CYP2E, prior to ASK1 inhibitor and lipopolysaccharide (LPS) administration. On day 3, ASK1 inhibitor 2-(6-(4-cyclopropyl-4H-1,2,4-triazol-3-yl)pyridin-2-yl)-5-(morpholine-4-carbonyl)isoindolin-1-one was administered by IV injection via tail vein at 0.3 and 3 mg/kg or vehicle twice (3 hours apart). LPS was administered intraperitoneally 30 min after the first dose of 2-(6-(4-cyclopropyl-4H-1,2,4-triazol-3-yl)pyridin-2-yl)-5-(morpholine-4-carbonyl)isoindolin-1-one. LPS administration emulates the inflammation by gut bacteria penetrating the intestinal wall following binge drinking. 24 h after LPS administration, plasma was collected for ALT analysis to estimate reduction of liver injury following intravenous treatment with ASK1 inhibitor.

Data set [2] can be described thus: Organ distribution of ASK1 inhibitor in rats after oral administration. To be noted: male, Sprague-Dawley, rat, single oral 300 mg/kg. The procedure:
The objective of this study was to investigate organ (liver, heart, kidney) distribution of ASK1 inhibitor in male Sprague Dawley rats following a single oral (PO) administration at a dose of 300 mg/kg. Three rats are administered orally with suspension formulation of ASK1 inhibitor 2-(6-(4-cyclopropyl-4H-1,2,4-triazol-3-yl)pyridin-2-yl)-5-(morpholine-4-carbonyl)isoindolin-1-one in a formulation of 0.1% Tween 80 and 99.9% HPMC (0.5% w/v in water) at 300 mg/kg dose.
as §1, with “PO administration.” for “IV injection.”, “kidney)” for “kidney, pancreas, spleen and skin)”
as §2

The mark [3] stands for this setting: heart / plasma, read-out: Tissue-to-plasma ratio, Heart.
Setting [4] is: kidney / plasma, read-out: Tissue-to-plasma ratio, Kidney.
Setting [5] is: liver / plasma, read-out: Tissue-to-plasma ratio, Liver.

In the case of `O=C(c1ccc2c(c1)CN(c1cccc(-c3nncn3C3CC3)n1)C2=O)N1CCOCC1` [2-(6-(4-cyclopropyl-4H-1,2,4-triazol-3-yl)pyridin-2-yl)-5-(morpholine-4-carbonyl)isoindolin-1-one], the Kp at 1 h in data set [1] (setting [3]) stood at 1.11; in data set [1] (setting [4]) it was 5.99; in data set [1] (setting [5]) it was 9.37; in data set [1] (pancreas / plasma, read-out: Tissue-to-plasma ratio, Pancreas), 0.99; in data set [1] (skin / plasma, read-out: Tissue-to-plasma ratio, Skin) it was 0.46; in data set [1] (spleen / plasma, read-out: Tissue-to-plasma ratio, Spleen), 0.89. The Kp at 1 h in data set [2] (setting [3]) worked out at 1.13; in data set [2] (setting [4]) it was 7.47; in data set [2] (setting [5]), 13.8. Besides, the “lowered plasma ALT levels” value in the data set on C57Bl/6 male mice is recorded as 74-85%.

The values are drawn from patent publication US20260021084A1, “METHOD OF TREATING ORGAN DISEASES OR DISORDERS WITH ASK1 INHIBITORS” (Seal Rock Therapeutics, Inc., priority 2022, published 2026).
